Experimental data reported in patent publication US9499538B2, “Estrogen receptor modulators and uses thereof” (Seragon Pharmaceuticals, Inc., priority 2012, dated 2016).

Columns and labels:
ER-α in MCF-7 cells = molecular target: T1, ER-α in MCF-7 cells (Homo sapiens, UniProt P03372); assay: Breast Cancer Cell ER-α In Cell Western Assay (SP1); type: cell-based; settings: 4 or 24 hr post compound addition; for Emax: MCF7, SP1 antibody, read-out: ER-α In Cell Western Assay (SP1) Max Response; for DC50: SP1 antibody, read-out: ER-α In Cell Western Assay (SP1) IC50
T1 construct: endogenous in cells; host or cells: MCF-7
T1 sequence (P03372 1-595): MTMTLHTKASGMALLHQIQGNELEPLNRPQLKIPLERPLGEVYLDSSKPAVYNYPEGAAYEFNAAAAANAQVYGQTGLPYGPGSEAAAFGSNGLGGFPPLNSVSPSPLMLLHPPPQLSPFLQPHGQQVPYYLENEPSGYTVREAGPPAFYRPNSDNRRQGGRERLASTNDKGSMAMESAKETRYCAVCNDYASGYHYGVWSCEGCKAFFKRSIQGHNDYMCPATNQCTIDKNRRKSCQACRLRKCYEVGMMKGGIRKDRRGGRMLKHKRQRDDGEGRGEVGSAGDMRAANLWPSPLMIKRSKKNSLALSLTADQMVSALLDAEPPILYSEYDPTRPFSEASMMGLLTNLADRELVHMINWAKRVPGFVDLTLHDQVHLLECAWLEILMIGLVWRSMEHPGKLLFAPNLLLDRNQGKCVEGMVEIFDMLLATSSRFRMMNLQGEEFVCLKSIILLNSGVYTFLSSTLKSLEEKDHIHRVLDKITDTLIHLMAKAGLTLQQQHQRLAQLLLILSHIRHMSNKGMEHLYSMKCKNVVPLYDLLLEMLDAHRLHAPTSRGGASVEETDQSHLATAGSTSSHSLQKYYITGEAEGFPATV
In short: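 MCF-7 cells in charcoal-stripped FBS medium, treated with 11-point semilog dilutions (0.3–0.000003 μM final) for 4 or 24 h. Fixed cells immunostained with SP1 antibody (800 nm) and DRAQ5 DNA (700 nm); ER/DNA ratio expressed as % of untreated cells.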

MCF-7 cells = assay: Breast Cancer Cell Viability Assays (MCF-7, CellTiter-Glo); type: cell-based; settings: 5 days' compound exposure; for IC50: Homo sapiens, MCF7, 120 h
In short: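 MCF-7 cells (320/well, RPMI with 10% FBS) exposed for 5 days to an eleven-point semilog series, 0.3–0.000003 μM final. Viability read by CellTiter-Glo luminescence, expressed as background-corrected percent of untreated cells.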

Row | SMILES | Emax (ER-α in MCF-7 cells) [%] | DC50 (ER-α in MCF-7 cells) [nM] | IC50 (MCF-7 cells) [nM] | MCF7 Viability Assay Max Response (MCF-7 cells)
1 | O=C(O)/C=C/c1ccc(/C(=C(\c2ncccc2C(F)(F)F)C2CCC2)c2ccc3[nH]nc(F)c3c2)cn1 [Example 260, (E)-3-(5-((Z)-2-Cyclobutyl-1-(3-fluoro-1H-indazol-5-yl)-2-(3-(trifluoromethyl)pyridin-2-yl)vinyl)pyridin-2-yl)acrylic acid] | ≥ 40 | ≤ 100 | ≤ 100 | ++ (++ = a single % value ≧ 40%)
2 | CC/C(=C(/c1ccc(/C=C/C(=O)O)cc1)c1ccc2[nH]nc(F)c2c1)c1ccccc1Cl [Example 261, (E)-3-(4-((E)-2-(2-Chlorophenyl)-1-(3-fluoro-1H-indazol-5-yl)but-1-en-1-yl)phenyl)acrylic acid] | ≥ 40 | ≤ 100 | ≤ 100 | ++ (++ = a single % value ≧ 40%)
3 | CC/C(=C(/c1ccc(/C=C/C(=O)O)cc1)c1ccc2[nH]nc(F)c2c1)c1ncccc1Cl [Example 262, (E)-3-(4-((E)-2-(3-Chloropyridin-2-yl)-1-(3-fluoro-1H-indazol-5-yl)but-1-en-1-yl)phenyl)acrylic acid] | ≥ 40 | ≤ 100 | ≤ 100 | ++ (++ = a single % value ≧ 40%)
4 | CC/C(=C(/c1ccc(/C=C/C(=O)O)cc1)c1ccc2[nH]nc(F)c2c1)c1ncccc1C(F)(F)F [Example 263, (E)-3-(4-((E)-1-(3-Fluoro-1H-indazol-5-yl)-2-(3-(trifluoromethyl)pyridin-2-yl)but-1-en-1-yl)phenyl)acrylic acid] | ≥ 40 | ≤ 100 | ≤ 100 | ++ (++ = a single % value ≧ 40%)
5 | CC/C(=C(/c1ccc(/C=C/C(=O)O)cc1)c1ccc2[nH]nc(F)c2c1)c1ncc(Cl)cc1Cl [Example 264, (E)-3-(4-((E)-2-(3,5-Dichloropyridin-2-yl)-1-(3-fluoro-1H-indazol-5-yl)but-1-en-1-yl)phenyl)acrylic acid] | ≥ 40 | ≤ 100 | ≤ 100 | ++ (++ = a single % value ≧ 40%)
6 | O=C(O)/C=C/c1ccc(/C(=C(\c2ccccc2)C2CCC2)c2ccc3[nH]nc(F)c3c2)cc1F [Example 265, (E)-3-(4-((Z)-2-Cyclobutyl-1-(3-fluoro-1H-indazol-5-yl)-2-phenylvinyl)-2-fluorophenyl)acrylic acid] | ≥ 40 | ≤ 100 | ≤ 100 | ++ (++ = a single % value ≧ 40%)
7 | C/C(=C\C(=O)O)c1ccc(/C(=C(\c2ccccc2)C2CCC2)c2ccc3[nH]nc(F)c3c2)cc1 [Example 266, (E)-3-(4-((E)-2-Cyclobutyl-1-(3-fluoro-1H-indazol-5-yl)-2-phenylvinyl)phenyl)but-2-enoic acid] | ≥ 40 | ≤ 100 | ≤ 100 | ++ (++ = a single % value ≧ 40%)
8 | C/C(=C\c1ccc(/C(=C(\c2ccccc2)C2CCC2)c2ccc3[nH]nc(F)c3c2)cc1)C(=O)O [Example 267, (E)-3-(4-((E)-2-Cyclobutyl-1-(3-fluoro-1H-indazol-5-yl)-2-phenylvinyl)phenyl)-2-methylacrylic acid] | ≥ 40 | ≤ 100 | ≤ 100 | ++ (++ = a single % value ≧ 40%)

Continued, in another order:

Row | Emax (ER-α in MCF-7 cells) [%] | DC50 (ER-α in MCF-7 cells) [nM] | IC50 (MCF-7 cells) [nM] | SMILES | MCF7 Viability Assay Max Response (MCF-7 cells)
9 | ≥ 40 | ≤ 100 | ≤ 100 | O=C(O)/C=C/c1ccc(/C(=C(\c2ccc(Cl)cc2Cl)C2CCC2)c2ccc3[nH]nc(F)c3c2)cn1 [Example 268, (E)-3-(5-((Z)-2-Cyclobutyl-2-(2,4-dichlorophenyl)-1-(3-fluoro-1H-indazol-5-yl)vinyl)pyridin-2-yl)acrylic acid] | ++ (++ = a single % value ≧ 40%)
10 | ≥ 40 | ≤ 100 | ≤ 100 | O=C(O)/C=C/c1ccc(/C(=C(\c2ccc(F)cc2C(F)(F)F)C2CCC2)c2ccc3[nH]nc(F)c3c2)cn1 [Example 269, (E)-3-(5-((Z)-2-Cyclobutyl-1-(3-fluoro-1H-indazol-5-yl)-2-(4-fluoro-2-(trifluoromethyl)phenyl)vinyl)pyridin-2-yl)acrylic acid] | ++ (++ = a single % value ≧ 40%)
11 | ≥ 40 | ≤ 100 | ≤ 100 | COc1ccc(/C(=C(\c2ccc(/C=C/C(=O)O)nc2)c2ccc3[nH]nc(F)c3c2)C2CCC2)c(Cl)c1 [Example 270, (E)-3-(5-((Z)-2-(2-Chloro-4-methoxyphenyl)-2-cyclobutyl-1-(3-fluoro-1H-indazol-5-yl)vinyl)pyridin-2-yl)acrylic acid] | ++ (++ = a single % value ≧ 40%)
12 | ≥ 40 | ≤ 100 | ≤ 100 | O=C(O)/C=C/c1ccc(/C(=C(\c2ccc(F)cc2Cl)C2CCC2)c2ccc3[nH]nc(F)c3c2)cc1F [Example 271, (E)-3-(4-((Z)-2-(2-Chloro-4-fluorophenyl)-2-cyclobutyl-1-(3-fluoro-1H-indazol-5-yl)vinyl)-2-fluorophenyl)acrylic acid] | ++ (++ = a single % value ≧ 40%)
13 | ≥ 40 | ≤ 100 | ≤ 100 | O=C(O)/C=C/c1ccc(/C(=C(\c2ccc(OC(F)(F)F)cc2Cl)C2CCC2)c2ccc3[nH]nc(F)c3c2)cn1 [Example 272, (E)-3-(5-((Z)-2-(2-Chloro-4-(trifluoromethoxy)phenyl)-2-cyclobutyl-1-(3-fluoro-1H-indazol-5-yl)vinyl)pyridin-2-yl)acrylic acid] | ++ (++ = a single % value ≧ 40%)
14 | ≥ 40 | ≤ 100 | ≤ 100 | O=C(O)/C=C/c1ccc(/C(=C(\c2ccc(OC(F)(F)F)cc2Cl)C2CCC2)c2ccc3[nH]nc(F)c3c2)cc1 [Example 273, (E)-3-(4-((E)-2-(2-Chloro-4-(trifluoromethoxy)phenyl)-2-cyclobutyl-1-(3-fluoro-1H-indazol-5-yl)vinyl)phenyl)acrylic acid] | ++ (++ = a single % value ≧ 40%)
15 | ≥ 40 | ≤ 100 | ≤ 100 | O=C(O)/C=C/c1ccc(/C(=C(\c2ccc(C(F)(F)F)cc2Cl)C2CCC2)c2ccc3scnc3c2)cc1 [Example 274, (E)-3-(4-((E)-1-(Benzo[d]thiazol-5-yl)-2-(2-chloro-4-(trifluoromethyl)phenyl)-2-cyclobutylvinyl)phenyl)acrylic acid] | ++ (++ = a single % value ≧ 40%)
16 | ≥ 40 | ≤ 100 | ≤ 100 | O=C(O)/C=C/c1ccc(/C(=C(\c2ccc(C(F)(F)F)cc2Cl)C2CCC2)c2ccc3[nH]nc(F)c3c2)cc1 [Example 275, (E)-3-(4-((E)-2-(2-Chloro-4-(trifluoromethyl)phenyl)-2-cyclobutyl-1-(3-fluoro-1H-indazol-5-yl)vinyl)phenyl)acrylic acid] | ++ (++ = a single % value ≧ 40%)
17 | ≥ 40 | ≤ 100 | ≤ 100 | COc1ccc(/C(=C(\c2ccc(/C=C/c3noc(=O)[nH]3)cc2)c2ccc3[nH]nc(F)c3c2)C2CCC2)c(Cl)c1 [Example 276, 3-((E)-4-((E)-2-(2-Chloro-4-methoxyphenyl)-2-cyclobutyl-1-(3-fluoro-1H-indazol-5-yl)vinyl)styryl)-1,2,4-oxadiazol-5(4H)-one] | ++ (++ = a single % value ≧ 40%)
